Measured values from publication PMC3694003 (PLoS ONE, 2013).
Where two headings read alike, the source gives them in different places. Bridge positions count the residues as written; N and C are the ends. Ends that are not written are not given here. Peptide text beside a SMILES is read from it.

How the values were obtained:
[1] = test system: primary activated human lymphocytes (PBMCs); format: cell-based; conditions: for immunosuppressive activity: mutation in hydrophilic 'bioactive face', Table 1, Figure 2
Experimental: (§1) Purified T-cells were obtained by CD3^+ positive selection using magnetic cell separation method according to manufacturer’s instructions (StemCell Technologies, Grenoble, France). Cells were washed twice with medium and cell viability as well as concentration was determined using the trypan blue exclusion test.
(§2) After cultivation, the cells were assessed in biological tests as described. Alternatively for IL-2 supplementation assays, lymphocytes or purified T-cells were equilibrated for 2 h at 37°C.

[2] = test system: purified human T-cells (CD3+); format: cell-based; conditions: cyclotides 1.8-14 µM
Experimental: as §1, §2

[3] = test system: IL-2 surface receptor CD25; format: cell-based, human; conditions: 4 µM; for IL-2 surface receptor CD25 expression compared to stimulated lymphocytes (ctrl, 100%): mean ± SD
Experimental: as §2
Cultured cells were washed with PBS and stained with PE-labeled anti-human CD25 mAbs (eBioscience) for 15 min at 4°C. Afterwards, the cells were washed twice with PBS and resuspended and transferred into FACS vials and expression of the IL-2 surface receptor α-chain CD25 was measured by FACS analysis using a FACSCalibur instrument.

[4] = test system: IL-2 release of activated lymphocytes; format: cell-based, human; conditions: 4 µM; 24 h then PMA/ionomycin 6 h; mean ± SD
Experimental: as §2
(§3) Cells were treated for 24 or 36 h, respectively and were restimulated with PMA (50 ng/mL) and ionomycin (500 ng/mL) for additional 6 h. Supernatants were harvested by centrifugation and were stored at -20°C. The amount of cytokines was measured and quantified using the FlowCytomix^TM technique according to manufacturer’s instructions (eBioscience) or alternatively intracellular cytokine production was determined. For this purpose the cells were fixed and permeabilized using 4% paraformaldehyde (Sigma-Aldrich) and Perm/Wash solution (Becton Dickinson), followed by staining with PE-conjugated anti-human IFN-γ mAb or anti-human TNF-α mAb (both from eBioscience), respectively. For CD107a degranulation assay, cells were restimulated with PMA (10 or 50 ng/mL, respectively) und ionomycin (100 or 500 ng/mL, respectively) and to each well containing 200 µL of cell suspension, 5 µL (~0.25 µg) PE-conjugated anti-CD107a mAb (eBioscience) were added. After incubation at 37°C for 1 h, 2 µL of 1/10 diluted GolgiStop (Becton Dickinson) was added per well and the plates were incubated for another 2.5 h. Samples were analyzed with a BD FACSCalibur flow cytometer using BD CellQuest Pro Software.

[5] = test system: IL-2 release of purified T-cells; assay: IL-2 secretion of purified T-cells, ELISA-based; format: cell-based, human; conditions: 4 µM; 24 h then PMA/ionomycin 6 h; relative to [V10K] kalata B1
Experimental: as §2, §3

[6] = test system: il-2 mRNA; assay: il-2 gene expression, quantitative RT-PCR; format: cell-based, human; conditions: 4 µM; lymphocytes; normalized to 18s rRNA
Experimental: Total RNA was extracted from controls or treated cells (4 x 10^6) and frozen at -80°C until further use. RNA purification was performed according to the manufacturer’s instructions for the RNeasy mini and RNAse-Free DNAse digestion kits (Qiagen, Hamburg, Germany). The quantity and purity of extracted RNA was measured by nanodrop spectrophotometry (Peqlab, Erlangen, Gemany) and purified RNA was reverse transcribed using the RT^2 First Strand Kit (Qiagen). RT-PCR reactions were carried out on a MyiQ kit (BioRad, Munich, Germany) in a final volume of 25 µL using RT² qPCR Primer Assay (for il-2) and SYBR® Green qPCR master mix (both from Qiagen). Each determination was performed in duplicate and the housekeeping gene 18s rRNA was used as an internal control. The real-time thermal cycler program comprised an initial denaturation step at 95 °C for 10 min followed by a two-step program with 40 cycles (95°C, 15 sec; and 60°C, 60 sec). The relative gene expression of il-2 has been determined by comparative cycle threshold analysis and the data were normalized to the internal housekeeping gene 18s rRNA and the relative mRNA level in the untreated group (untreated PHA-L-activated).

[7] = test system: primary human lymphocytes; format: cell-based; conditions: for proliferation compared to control, pretreated and washed cells with exogenous IL-2 / proliferation compared to control cells, pretreated and washed cells without exogenous IL-2: 4 µM pretreatment, PHA-L 10 µg/mL, day three, mean ± SD, three experiments; for proliferation compared to control, pretreated and washed cells with exogenous IL-2: recombinant human IL-2 added
Experimental: as §2
10 µg/milliliter PHA-L for 1 h. This was followed by washing off the substances and stimuli with PBS and resuspending the cells in medium for further assays as described.

[8] = test system: IFN-γ; assay: IFN-γ production of activated lymphocytes; format: cell-based, human; conditions: 4 µM, mean ± SD; for IFN-γ concentration compared to control: 24 h post stimulation, supernatant, ELISA-based, three experiments
Experimental: as §3

[9] = test system: TNF-α; assay: TNF-α production of activated lymphocytes; format: cell-based, human; conditions: 4 µM, mean ± SD; for TNF-α production compared to control: 36 h post stimulation, intracellular cytokine flow cytometry
Experimental: as §3

[10] = test system: degranulation marker LAMP-1 (CD107a); assay: CD107a degranulation assay; format: cell-based, human; conditions: 36 h, 4 µM, mean ± SD, three experiments
Experimental: as §3

[11] = test system: Ca2+-release in human primary T-cells; assay: Ca2+-release assay in T-cells; format: cell-based; conditions: for inhibition or delay of PMA/ionomycin-triggered Ca2+-release after pretreatment: 4 µM overnight (16 h), Fluo-4/Fura Red flow cytometry; for direct change in Ca2+-signaling: 4 µM, Fura-2 loaded T-cells, fluorometer
Experimental: Human primary T-cells (1 x 10^6/mL) were loaded with 1 µM Fura-2 and 0.02% Puronic F-127 for 30 min at 37°C. Cells were centrifuged for 5 min at 1200 rpm and resuspended in RPMI 1640 media supplemented with 10% fetal calf serum, penicillin (100 U/mL) and streptomycin (100 U/mL). 100 µL of cell suspension were transferred into a black 96-well plate with a clear flat-bottom. Briefly before analysis the fluorometer Synergy H4 (BioTek, Winooski, VT) was equilibrated to 37°C. The fluorescence time course was measured with: extinction at 340 and 380 nm, respectively, and emission at 510 nm in 30 sec intervals, while continuously shaking. […] To receive maximum Ca^2+-release, cells were stimulated with PMA (50 ng/mL) and ionomycin (500 ng/mL). For lowest Ca^2+-levels, cells remained untreated. […] (4 µM each) or left untreated over night at 37°C in a 24-well flat-bottom plate. Cells were stained for 15 min with Fluo-4 (2 µM) and Fura Red (4 µM), centrifuged at 1000 rpm for 5 min and resuspended in medium. Ca^2+-release was measured by time-dependent flow cytometry using BD FACSCalibur as described previously. Fluo-4 and Fura Red signals were detected using flow cytometric analysis. After equilibrating basal calcium levels for 60 sec, PMA (50 ng/mL) and ionomycin (500 ng/mL) were added to the preincubated T-cells. Fluorescence ratio was calculated using WEASEL 2.3 software.

[12] = test system: lymphocytes and purified T-cells; assay: Cytotoxicity in proliferation experiments; format: cell-based, human; conditions: analyzed concentration range up to 14 µM
Experimental: as §2

Compound	IL-2 surface receptor CD25 expression compared to stimulated lymphocytes (ctrl, 100%) ([3]; 24 h)	IL-2 surface receptor CD25 expression compared to stimulated lymphocytes (ctrl, 100%) ([3]; 36 h)	IL-2 release of T-lymphocytes compared to control cells [4]	level of il-2 mRNA compared to control [6]	proliferation compared to control, pretreated and washed cells with exogenous IL-2 [7]	proliferation compared to control cells, pretreated and washed cells without exogenous IL-2 [7]	IFN-γ concentration compared to control [8]	TNF-α production compared to control [9]	cells containing degranulation marker LAMP-1 as compared to control [10]	inhibition or delay of PMA/ionomycin-triggered Ca2+-release after pretreatment [11]	direct change in Ca2+-signaling [11]	immunosuppressive activity [1]	suppression of the proliferation of T-cells [2]	other results
CC(C)C[C@@H]1NC(=O)CNC(=O)[C@H](CC(N)=O)NC(=O)[C@H](CCCNC(=N)N)NC(=O)[C@H]([C@@H](C)O)NC(=O)[C@@H]2CSSC[C@@H]3NC(=O)[C@H]([C@@H](C)O)NC(=O)CNC(=O)CNC(=O)[C@H](C(C)C)NC(=O)[C@@H]4CSSC[C@H](NC(=O)[C@H](CCCCN)NC(=O)[C@H](CSSC[C@H](NC(=O)[C@H](C(C)C)NC(=O)[C@@H]5CCCN5C1=O)C(=O)NCC(=O)N[C@@H](CCC(=O)O)C(=O)N[C@@H]([C@@H](C)O)C(=O)N4)NC(=O)CNC(=O)[C@@H]1CCCN1C(=O)[C@H]([C@@H](C)O)NC(=O)[C@H](CC(N)=O)NC3=O)C(=O)N[C@@H](CO)C(=O)N[C@@H](Cc1c[nH]c3ccccc13)C(=O)N1CCC[C@H]1C(=O)N[C@@H](C(C)C)C(=O)N2 [[T20K]] (cyclo(CGETCVGGTCNTPGCKCSWPVCTRNGLPV); disulfide 1-15, 5-17, 10-22 (inferred); ring closure inferred)	79% ± 10	46% ± 18	24% ± 19	clearly decreased	91% ± 1.4	29% ± 24	21% ± 13	did not affect	49% ± 17	Neither cyclotides nor CsA induced any inhibition or a delay	did not induce any change			IC50 ([1]; CFSE flow cytometry, day three post stimulation, cyclotides 1.8-14 µM, non-linear regression (fixed slope), mean ± SD, a: n=7, b: n=4, c: n=3, read-out: IC50 (µM) ± SD, inhibition of lymphocyte (PBMC) proliferation): 1.9 ± 0.6 µM; IC50 ([2]; CFSE flow cytometry, day 3, non-linear regression (fixed slope), mean ± SD, c: n=3, d: n=2, read-out: IC50 (µM) ± SD, inhibition of purified T-cell proliferation): 2.7 ± 0.6 µM; IL-2 release of purified T-cells [5]: significantly decreased; restoring of normal proliferation by addition of IL-2 ([7]; peptide still present throughout the whole cultivation period (not washed off)): ineffective; IFN-γ level compared to control ([8]; 36 h post stimulation, intracellular cytokine flow cytometry): no effect; TNF-α expression compared to control ([9]; 24 h post stimulation, supernatant, ELISA-based): 23% ± 11; cytotoxicity [12]: no signs of cytotoxicity
[T8K]: single point-mutated lysine analogue of kalata B1, position 8 (GLPVCGEKCVGGTCNTPGCTCSWPVCTRN; ends and bridges not checked; cysteine pairing not given here; UniProt P56254 89-117, looked up, variant T8K)												lost their immunosuppressive activity	did not suppress	IC50 (µM) ± SD, inhibition of lymphocyte (PBMC) proliferation ([1]; CFSE flow cytometry, day three post stimulation, cyclotides 1.8-14 µM, non-linear regression (fixed slope), mean ± SD, a: n=7, b: n=4, c: n=3): not active (n.a.)^b
[V10A]: single point-mutated alanine analogue of kalata B1, position 10 (cyclo(GLPVCGETCAGGTCNTPGCTCSWPVCTRN); disulfide 14-26, 5-19, 9-21; ends not checked; UniProt P56254 89-117, looked up, variant V10A)												lost their immunosuppressive activity	did not suppress	
[V10K]: single point-mutated lysine analogue of kalata B1, position 10; 'inactive' mutant (GLPVCGETCKGGTCNTPGCTCSWPVCTRN; ends and bridges not checked; cysteine pairing not given here; UniProt P56254 89-117, looked up, variant V10K)			no effect		did not have any effect	no effect	not affected	did not affect	no influence	Neither cyclotides nor CsA induced any inhibition or a delay	did not induce any change	lost their immunosuppressive activity	did not suppress	IL-2 receptor surface level ([3]; time not given): unaffected
cyclosporin A [CsA, reference compound]	76% ± 11	62% ± 7.3		clearly decreased					42% ± 21	Neither cyclotides nor CsA induced any inhibition or a delay	did not induce any change			
